Results on 18 compounds are retold here after patent publication US6495578B1, “Sulfonamide derivatives having oxadiazole rings” (Shionogi & Co., Ltd., priority 1999, dated 2002).

pIC50: −log10 of the molar value.

Tested on in the first series: not given
Test: not given
Conditions: not given
Compound `Cc1ccc(-c2nc(-c3ccc(S(=O)(=O)N[C@@H](C(=O)O)C(C)C)cc3)no2)cc1` [Compound A-1] gave a melting point of 208 to 209 °C.

Another series deals with T1, MMP-2 (Homo sapiens, UniProt P08253).
T1 construct: purchased Calbiochem-Novabiochem International, Inc
T1 sequence (P08253 110-660): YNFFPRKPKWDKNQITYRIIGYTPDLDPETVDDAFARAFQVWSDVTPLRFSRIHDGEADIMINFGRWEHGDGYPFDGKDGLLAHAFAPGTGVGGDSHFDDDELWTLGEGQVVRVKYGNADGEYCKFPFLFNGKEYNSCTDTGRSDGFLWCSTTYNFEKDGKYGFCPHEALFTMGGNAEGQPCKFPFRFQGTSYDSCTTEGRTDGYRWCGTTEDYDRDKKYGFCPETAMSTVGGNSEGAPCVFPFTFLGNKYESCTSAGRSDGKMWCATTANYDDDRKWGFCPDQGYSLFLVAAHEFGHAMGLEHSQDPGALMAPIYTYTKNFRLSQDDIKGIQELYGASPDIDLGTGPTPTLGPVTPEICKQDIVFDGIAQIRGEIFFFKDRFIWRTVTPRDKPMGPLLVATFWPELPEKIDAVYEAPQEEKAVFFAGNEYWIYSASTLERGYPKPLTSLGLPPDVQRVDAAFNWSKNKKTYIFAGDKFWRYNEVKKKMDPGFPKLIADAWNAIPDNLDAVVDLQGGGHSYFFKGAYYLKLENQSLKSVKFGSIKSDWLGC
Description: Assay for inhibitory activities on MMP-2 (fluorogenic coumarin-labelled peptide substrate). The format is biochemical. The conditions noted are these: MMP-2 purchased from Calbiochem-Novabiochem; substrate MOCAc-Pro-Leu-Gly-Leu-A2Pr(DNP)-Ala-Arg-NH2. The procedure:
MMP-2 was purchased from Calbiochem-Novabiochem International, Inc.
The enzymatic activity on MMP-2 was analyzed by the method described in “C. Graham Knight, Frances Willenbrock and Gillian Murphy: A novel coumarin-labelled peptide for sensitive continuous assays of the matrix metalloproteinases: FEBS LETT., 296, (1992), 263-266”. The substrate: MOCAc-Pro-Leu-Gly-Leu-A2Pr(DNP)-Ala-Arg-NH2 was purchased from Peptide Institute, Inc., Osaka, Japan.
The measurement of the inhibitory activities (IC50) was carried out by the following four methods;
A) Reaction with substrate, enzyme (MMPs) and inhibitor
B) Reaction with substrate and inhibitor, without enzyme
C) Reaction with substrate and enzyme (MMPs), without inhibitor
D) Reaction with substrate only
IC50 values were calculated by using the following formula and each fluorescence values of above four methods (A to D).
IC50 means the concentration required to inhibit 50% of the enzyme activity.
Take `Cc1ccc(-c2nc(-c3ccc(S(=O)(=O)N[C@@H](C(=O)O)C(C)C)cc3)no2)cc1` [Compound A-1]: the negative logarithm of the IC50 (pIC50) was 8.34. `Cc1ccc(-c2nc(-c3ccc(S(=O)(=O)N[C@@H](CC(C)C)C(=O)O)cc3)no2)cc1` [Compound A-67]: the pIC50 is 6.91. Against the preceding compound, the pIC50 is 1.43 log units lower.

Consider `CC(C)[C@@H](NS(=O)(=O)c1ccc(-c2noc(-c3ccc(F)cc3)n2)s1)C(=O)O` [Compound B-1], for which the pIC50 is 7.17. This pIC50 is 0.26 log units higher than that of the compound before. The same measure, in the same setting: then `CCc1ccc(-c2nc(-c3ccc(S(=O)(=O)N[C@@H](C(=O)O)C(C)C)s3)no2)cc1` [Compound B-2], with 8.27; and `O=C(O)[C@@H](Cc1ccccc1)NS(=O)(=O)c1ccc(-c2noc(-c3ccc(F)cc3)n2)s1` [Compound B-3], with 6.65; and `CCc1ccc(-c2nc(-c3ccc(S(=O)(=O)N[C@H](Cc4ccccc4)C(=O)O)s3)no2)cc1` [Compound B-4], with 7.75. On to `CCCc1ccc(-c2nc(-c3ccc(S(=O)(=O)N[C@H](Cc4ccccc4)C(=O)O)s3)no2)cc1` [Compound B-5], for which the pIC50 is 7.44. Consider `Cc1ccc(-c2nc(-c3ccc(S(=O)(=O)N[C@H](Cc4ccccc4)C(=O)O)s3)no2)s1` [Compound B-6], for which the pIC50 was 7.58. The pIC50 values of the last two compounds are within 0.2 log units of each other. For `C[C@@H](NS(=O)(=O)c1ccc(-c2noc(-c3ccc(F)cc3)n2)s1)C(=O)O` [Compound B-7], the pIC50 is 7.40. The same measure, in the same setting: then `CCc1ccc(-c2nc(-c3ccc(S(=O)(=O)N[C@H](C)C(=O)O)s3)no2)cc1` [Compound B-8], with 8.54; and `C[C@@H](NS(=O)(=O)c1ccc(-c2noc(-c3cccs3)n2)s1)C(=O)O` [Compound B-9], with 7.55. The compound `Cc1ccc(-c2nc(-c3ccc(S(=O)(=O)N[C@H](C)C(=O)O)s3)no2)s1` [Compound B-10] showed a pIC50 of 8.20. Compared with the last compound, the pIC50 is 0.65 log units higher. `C[C@@H](NS(=O)(=O)c1ccc(-c2noc(-c3ccccn3)n2)s1)C(=O)O` [Compound B-11] showed a pIC50 of 6.21. In turn, `O=C(O)[C@@H](Cc1c[nH]c2ccccc12)NS(=O)(=O)c1ccc(-c2noc(-c3ccc(F)cc3)n2)s1` [Compound B-12] had a pIC50 of 7.54. Consider `CCc1ccc(-c2nc(-c3ccc(S(=O)(=O)N[C@H](Cc4c[nH]c5ccccc45)C(=O)O)s3)no2)cc1` [Compound B-13], for which the pIC50 was 8.39. As for `O=C(O)CNS(=O)(=O)c1ccc(-c2noc(-c3ccc(F)cc3)n2)s1` [Compound B-14], the pIC50 was 6.65. In the case of `Cc1ccc(-c2nc(-c3ccc(S(=O)(=O)NCC(=O)O)s3)no2)cc1` [Compound B-15], the pIC50 is 7.41. Turning to `CCc1ccc(-c2nc(-c3ccc(S(=O)(=O)NCC(=O)O)s3)no2)cc1` [Compound B-16], the negative-log IC50 (pIC50) is 7.90.
